In ChEMBL document CHEMBL5104220, “Development of Gilteritinib-Based Chimeric Small Molecules that Potently Induce Degradation of FLT3-ITD Protein” (ACS Med Chem Lett, 2022):
The source made the active and inactive calls. The rule behind the calls is not given here.

What was measured:
[1] = biological target: T1, Signal transducer and activator of transcription 5A (Homo sapiens) (UniProt P42229); assay: Inhibition of STAT5 phosphorylation in human MV4-11 cells at 0.03 to 3 uM incubated for 24 hrs by Western blot analysis; format: cell-based; conditions: dose 0.03-3 µM
T1 sequence (whole entry): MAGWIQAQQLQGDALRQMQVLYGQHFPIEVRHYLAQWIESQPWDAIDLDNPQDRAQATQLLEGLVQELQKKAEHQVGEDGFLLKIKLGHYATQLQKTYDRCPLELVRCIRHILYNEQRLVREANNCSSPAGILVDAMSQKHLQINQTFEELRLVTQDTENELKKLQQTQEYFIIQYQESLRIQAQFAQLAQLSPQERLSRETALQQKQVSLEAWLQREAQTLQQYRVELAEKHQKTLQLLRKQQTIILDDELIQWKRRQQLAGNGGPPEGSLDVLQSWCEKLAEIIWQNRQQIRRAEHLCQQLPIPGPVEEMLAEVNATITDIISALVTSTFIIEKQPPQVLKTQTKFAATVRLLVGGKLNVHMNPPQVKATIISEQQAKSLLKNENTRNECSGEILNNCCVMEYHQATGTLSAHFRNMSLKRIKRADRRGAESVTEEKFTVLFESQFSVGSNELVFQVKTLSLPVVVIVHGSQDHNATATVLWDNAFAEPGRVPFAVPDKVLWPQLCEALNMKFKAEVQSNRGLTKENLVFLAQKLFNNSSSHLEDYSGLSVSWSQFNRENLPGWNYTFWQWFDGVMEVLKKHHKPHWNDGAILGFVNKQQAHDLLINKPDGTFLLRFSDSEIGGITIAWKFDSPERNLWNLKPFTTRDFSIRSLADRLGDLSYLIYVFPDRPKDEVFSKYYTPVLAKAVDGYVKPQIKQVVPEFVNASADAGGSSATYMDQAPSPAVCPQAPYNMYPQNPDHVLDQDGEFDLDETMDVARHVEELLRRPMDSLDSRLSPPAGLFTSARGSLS

[2] = test system: Protein cereblon/Receptor-type tyrosine-protein kinase FLT3 (Homo sapiens), P36888+Q96SW2 [UNDEFINED MUTATION]; assay: PROTAC activity at CRBN/FLT3-ITD mutant in human MV4-11 cells assessed as decrease in FLT3 protein expression at 0.03 to 3 uM incubated for 24 hrs by Western blot analysis; format: cell-based; conditions: dose 0.03-3 µM
[3] = test system: Protein cereblon/Receptor-type tyrosine-protein kinase FLT3 (Homo sapiens), P36888+Q96SW2 [UNDEFINED MUTATION]; assay: PROTAC activity at CRBN/FLT3-ITD mutant in human MOLM-14 cells assessed as decrease in FLT3 protein expression at 0.03 to 3 uM incubated for 24 hrs by Western blot analysis; format: cell-based; conditions: dose 0.03-3 µM
[4] = test system: Protein cereblon/Receptor-type tyrosine-protein kinase FLT3 (Homo sapiens), P36888+Q96SW2 [UNDEFINED MUTATION]; assay: PROTAC activity at CRBN/FLT3-ITD mutant in human MV4-11 cells assessed as inhibition of FLT3 phosphorylation at 0.03 to 3 uM incubated for 24 hrs by Western blot analysis; format: cell-based; conditions: dose 0.03-3 µM
[5] = test system: Protein cereblon/Receptor-type tyrosine-protein kinase FLT3 (Homo sapiens), P36888+Q96SW2 [UNDEFINED MUTATION]; assay: PROTAC activity at CRBN/FLT3-ITD mutant in human MV4-11 cells assessed as inhibition of STAT5 phosphorylation at 0.03 to 3 uM incubated for 24 hrs by Western blot analysis; format: cell-based; conditions: dose 0.03-3 µM
MOLM-14 = assay: Antiproliferative activity against human MOLM-14 cells harboring FLT3-ITD mutant assessed as inhibition of cell proliferation incubated for 72 hrs by WST-8 assay; format: functional, cell-based; conditions: MOLM-14, 72 h
[6] = test system: Protein cereblon/Receptor-type tyrosine-protein kinase FLT3 (Homo sapiens), P36888+Q96SW2 [UNDEFINED MUTATION]; assay: PROTAC activity at CRBN/FLT3-ITD mutant in human MOLM-14 cells assessed as decrease in IKZF1 protein expression at 0.01 to 0.3 uM incubated for 24 hrs by Western blot analysis; format: cell-based; conditions: dose 0.01-0.3 µM
[7] = test system: Protein cereblon/Receptor-type tyrosine-protein kinase FLT3 (Homo sapiens), P36888+Q96SW2 [UNDEFINED MUTATION]; assay: PROTAC activity at CRBN/FLT3-ITD mutant in human MOLM-14 cells assessed as decrease in ALK protein expression by Western blot analysis; format: cell-based
[8] = test system: Protein cereblon/Receptor-type tyrosine-protein kinase FLT3 (Homo sapiens), P36888+Q96SW2 [UNDEFINED MUTATION]; assay: PROTAC activity at CRBN/FLT3-ITD mutant in human MV4-11 cells at 30 nM measured upto 32 hrs in the presence of cycloheximide by Western blot analysis; format: cell-based
MV4-11 = assay: Antiproliferative activity against human MV4-11 cells harboring FLT3-ITD mutant assessed as inhibition of cell proliferation incubated for 72 hrs by WST-8 assay; format: functional, cell-based; conditions: MV4-11, 72 h
[9] = test system: Protein cereblon/Receptor-type tyrosine-protein kinase FLT3 (Homo sapiens), P36888+Q96SW2 [UNDEFINED MUTATION]; assay: PROTAC activity at CRBN/FLT3-ITD mutant in human MV4-11 cells assessed as decrease in IKZF1 protein expression at 0.01 to 0.3 uM incubated for 24 hrs by Western blot analysis; format: cell-based; conditions: dose 0.01-0.3 µM
[10] = test system: Protein cereblon/Receptor-type tyrosine-protein kinase FLT3 (Homo sapiens), P36888+Q96SW2 [UNDEFINED MUTATION]; assay: PROTAC activity at CRBN/FLT3-ITD mutant in human MV4-11 cells assessed as decrease in LTK protein expression by Western blot analysis; format: cell-based
[11] = test system: Protein cereblon/Receptor-type tyrosine-protein kinase FLT3 (Homo sapiens), P36888+Q96SW2 [UNDEFINED MUTATION]; assay: PROTAC activity at CRBN/FLT3-ITD mutant in human MOLM-14 cells assessed as decrease in FLT3 mRNA expression at 0.03 to 3 uM incubated for 24 hrs by RT-qPCR analysis; format: cell-based; conditions: dose 0.03-3 µM
[12] = test system: Protein cereblon/Receptor-type tyrosine-protein kinase FLT3 (Homo sapiens), P36888+Q96SW2 [UNDEFINED MUTATION]; assay: PROTAC activity at CRBN/FLT3-ITD mutant in human MOLM-14 cells assessed as decrease in LTK protein expression by Western blot analysis; format: cell-based
[13] = test system: Protein cereblon/Receptor-type tyrosine-protein kinase FLT3 (Homo sapiens), P36888+Q96SW2 [UNDEFINED MUTATION]; assay: PROTAC activity at CRBN/FLT3-ITD mutant in human MV4-11 cells assessed as decrease in ALK protein expression by Western blot analysis; format: cell-based
[14] = test system: Protein cereblon/Receptor-type tyrosine-protein kinase FLT3 (Homo sapiens), P36888+Q96SW2 [UNDEFINED MUTATION]; assay: PROTAC activity at CRBN/FLT3-ITD mutant in human MV4-11 cells assessed as decrease in FLT3 protein expression at 0.3 to 3 uM incubated for 18 hrs in the presence of bafilomycin A1 by Western blot analysis; format: cell-based; conditions: dose 0.3-3 µM

Protein cereblon/Receptor-type tyrosine-protein kinase FLT3 (Homo sapiens), P36888+Q96SW2 [UNDEFINED MUTATION], sequence (P36888 whole entry, looked up, stated change not applied): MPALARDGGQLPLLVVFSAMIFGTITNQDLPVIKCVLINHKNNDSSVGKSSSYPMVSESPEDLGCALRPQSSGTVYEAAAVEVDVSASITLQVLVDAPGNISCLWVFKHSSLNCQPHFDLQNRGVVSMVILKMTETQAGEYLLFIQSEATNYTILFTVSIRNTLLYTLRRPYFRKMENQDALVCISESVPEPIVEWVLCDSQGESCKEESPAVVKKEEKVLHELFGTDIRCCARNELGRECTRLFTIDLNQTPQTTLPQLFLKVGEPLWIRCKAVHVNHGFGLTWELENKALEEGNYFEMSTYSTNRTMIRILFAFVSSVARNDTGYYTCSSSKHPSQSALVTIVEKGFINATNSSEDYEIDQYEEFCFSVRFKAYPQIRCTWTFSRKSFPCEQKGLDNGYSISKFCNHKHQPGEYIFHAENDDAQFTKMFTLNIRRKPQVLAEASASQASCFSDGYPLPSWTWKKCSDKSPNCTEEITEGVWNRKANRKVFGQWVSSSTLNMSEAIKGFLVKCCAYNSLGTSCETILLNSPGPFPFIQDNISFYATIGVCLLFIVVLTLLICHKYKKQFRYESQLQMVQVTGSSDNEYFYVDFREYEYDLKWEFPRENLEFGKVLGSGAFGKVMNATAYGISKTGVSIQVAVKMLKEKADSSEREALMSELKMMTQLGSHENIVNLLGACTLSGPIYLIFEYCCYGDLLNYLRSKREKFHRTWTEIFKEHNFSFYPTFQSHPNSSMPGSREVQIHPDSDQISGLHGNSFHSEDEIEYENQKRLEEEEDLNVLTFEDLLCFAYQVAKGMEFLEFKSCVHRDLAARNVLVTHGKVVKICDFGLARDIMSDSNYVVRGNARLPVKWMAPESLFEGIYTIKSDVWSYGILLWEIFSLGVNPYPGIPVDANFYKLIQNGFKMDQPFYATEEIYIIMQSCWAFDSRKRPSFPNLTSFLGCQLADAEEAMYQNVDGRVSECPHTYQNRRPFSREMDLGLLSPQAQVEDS
Protein cereblon/Receptor-type tyrosine-protein kinase FLT3 (Homo sapiens), P36888+Q96SW2 [UNDEFINED MUTATION], sequence (Q96SW2 whole entry, looked up, stated change not applied): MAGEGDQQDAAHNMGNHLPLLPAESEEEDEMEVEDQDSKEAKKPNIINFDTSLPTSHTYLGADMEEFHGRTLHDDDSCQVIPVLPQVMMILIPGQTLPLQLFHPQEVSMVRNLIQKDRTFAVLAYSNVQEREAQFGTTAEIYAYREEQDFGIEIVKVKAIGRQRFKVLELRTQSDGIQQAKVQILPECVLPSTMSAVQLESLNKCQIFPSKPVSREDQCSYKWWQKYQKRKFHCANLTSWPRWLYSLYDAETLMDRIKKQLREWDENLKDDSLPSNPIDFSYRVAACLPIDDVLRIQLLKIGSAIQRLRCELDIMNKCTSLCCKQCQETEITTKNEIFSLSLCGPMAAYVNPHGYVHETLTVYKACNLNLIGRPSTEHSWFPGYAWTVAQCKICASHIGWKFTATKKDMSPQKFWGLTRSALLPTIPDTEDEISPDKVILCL

In the case of `CCc1nc(C(N)=O)c(Nc2ccc(N3CCC(N4CCN(C)CC4)CC3)c(OC)c2)nc1NC1CCOCC1`, the inhibition [1] is reported as “Active”.

For `CC1(COc2ccc3c(c2)ncn3-c2ccc3cccc(N4CCC(N)CC4)c3n2)COC1`, the inhibition [1] was “Active”.

In the case of `CNC(=O)c1cc(Oc2ccc(NC(=O)Nc3ccc(Cl)c(C(F)(F)F)c3)cc2)ccn1`, the inhibition [1] is reported as “Active”.

With `CCc1nc(C(N)=O)c(Nc2ccc(N3CCC(N4CCN(CC5CCN(C(=O)CCOCCOCCOCCOCCNc6cccc7c6C(=O)N(C6CCC(=O)NC6=O)C7=O)CC5)CC4)CC3)c(OC)c2)nc1NC1CCOCC1` (stereo unspecified) the Activity [2] was “Active”, the Activity [3] was “Active” and the Activity [4] was “Active”. For the same compound, the Activity [5] was “Active”.

`CC(C)(C)c1cc(NC(=O)Nc2ccc(-c3cn4c(n3)sc3cc(OCCN5CCOCC5)ccc34)cc2)no1` was tested, and the inhibition [1] was “Active”.

For `CCc1nc(C(N)=O)c(Nc2ccc(N3CCC(N4CCN(CC5CCN(C(=O)CCOCCOCCNc6cccc7c6C(=O)N(C6CCC(=O)NC6=O)C7=O)CC5)CC4)CC3)c(OC)c2)nc1NC1CCOCC1` (stereo unspecified), the IC50 (MOLM-14) was 2.8 nM, the Activity [6] was “Active” and the Activity [7] was “Active”. For the same compound, the Activity [8] was “Active”, the Activity [2] was “Active” and the IC50 (MV4-11) was 0.9 nM. For the same compound, the Activity [9] was “Active”, the Activity [10] was “Active” and the Activity [3] was “Active”. The Activity [11] was “Active”, the Activity [12] was “Active” and the Activity [13] was “Active”. The Activity [14] was “Active”.
